Results on 1 molecule are retold here after US11834431B2, “Crystals of cyclic amine derivative and pharmaceutical use thereof” (Toray Industries, Inc., priority 2016, dated 2023).

Holding throughout (format): physicochemical
A short description of data set [1]: Evaluation of hygroscopicity (equilibrium moisture measurement). The following applies: for Weight increase: humidification with an increase in relative humidity from 5% to 65%; for Weight increase / Change in appearance: 30° C.; for Change in appearance: humidification. As for the experimental part: Equilibrium moisture measurement was performed on Form A crystal and the amorphous matter of compound (I) under the following conditions using a fully automated symmetric vapor sorption analyzer (TA Instruments Inc.; VTI-SA+). […] The change in appearance was also observed.

Data set [2] in a line: Evaluation of solubility in Japanese Pharmacopoeia test fluids. The following applies: thermodynamic from solid. As for the experimental part: Form A crystal of compound (I) (100 mg) was weighed into a borosilicate glass vial, and the 1st fluid for disintegration test/1st fluid for dissolution test of the Japanese Pharmacopoeia 16th edition (pH 1.2)(1 mL) or the 2nd fluid for disintegration test of the Japanese Pharmacopoeia 16th edition (pH 6.8)(1 mL) was added in a temperature and humidity test chamber (Amefrec Co., Ltd.; NO DOORα) adjusted to 37° C., followed by stirring. Form B crystal of ethane disulfonate of compound (I) (10 mg) was weighed into a borosilicate glass vial, and the 2nd fluid for disintegration test of the Japanese Pharmacopoeia 16th edition (pH 6.8) (0.1 mL) was added in a temperature and humidity test chamber (Amefrec Co., Ltd.; NO DOORα) adjusted to 37° C., followed by stirring. After 30 minutes, the inside of each vial was visually checked, and it was confirmed that each crystal was completely dissolved.

Data set [3] is described as follows: Evaluation of storage stability, Form A crystal versus amorphous matter (HPLC purity). As to conditions: for Chemical purity, After storage / Decomposition product increased by not less than 0.15% after storage / Optical purity, After storage: airtight state, listed as Form A.
[4] abbreviates: listed as Form A crystal of compound (I).
Setting [5] is: 40° C., relative humidity 75%, 8 weeks.

Like-named read-outs stand apart in the source and are kept apart here.

As for `CN(C)C1CCN(C(=O)C[C@H](O)c2nccn2C)CC1` [Form A crystal, (S)-1-(4-(dimethylamino)piperidin-1-yl)-3-hydroxy-3-(1-methyl-1H-imidazol-2-yl)propan-1-one], in data set [1], the Weight increase came to 0.1% and the Change in appearance entry is listed as “Maintenance of white powder”. In data set [1] (setting [4]), the Weight increase result was “did not experience an increase in weight” and the Change in appearance entry is recorded as “did not deliquesce”. Besides, in data set [1] (powder X-ray diffraction after humidification), the “change in the crystal form after the hygroscopicity evaluation test” value is given as “did not experience a change in the crystal form”. In addition, the solubility at 30 min in data set [2] (Japanese Pharmacopoeia test fluids, text summary of Table 5, 37° C., read-out: solubilities) is ≥ 100 mg/mL. In addition, in data set [2] (simulated gastric fluid, 1st fluid for disintegration test/1st fluid for dissolution test of the Japanese Pharmacopoeia 16th edition (pH 1.2), 37° C., 30 minutes, read-out: Solubility (37° C.)), the solubility at 30 min is > 100 mg/mL. In data set [3] (setting [5]), the “Chemical purity, After storage” value is listed as 99.9%; the “Decomposition product increased by not less than 0.15% after storage” value was “None”; the “Optical purity, After storage” value stood at 98.8 % ee. Besides, in data set [3] (60° C., 4 weeks), the “Chemical purity, After storage” value is given as 99.8%; the “Decomposition product increased by not less than 0.15% after storage” value is “None”; the “Optical purity, After storage” value is 98.8 % ee. In data set [3] (before storage), the “Chemical purity, Initial value” is reported as 99.9% and the “Optical purity, Initial value” is 98.6 % ee.
